Measured values as given in article PMC8290022, “Electrophysiological characterization of a diverse group of sugar transporters from Trichoderma reesei” (Scientific Reports, 2021).

Target: T1, STR3 (Trire2_62380) (Trichoderma reesei, UniProt G0RKF0)
T1 construct: gene TRIREDRAFT_62380
Assay: two-electrode voltage clamp in Xenopus oocytes, transport current
Type: cell-based
Details: pH 5.5, -50 mV, H+ symport

T1 sequence (G0RKF0 entry or part of it): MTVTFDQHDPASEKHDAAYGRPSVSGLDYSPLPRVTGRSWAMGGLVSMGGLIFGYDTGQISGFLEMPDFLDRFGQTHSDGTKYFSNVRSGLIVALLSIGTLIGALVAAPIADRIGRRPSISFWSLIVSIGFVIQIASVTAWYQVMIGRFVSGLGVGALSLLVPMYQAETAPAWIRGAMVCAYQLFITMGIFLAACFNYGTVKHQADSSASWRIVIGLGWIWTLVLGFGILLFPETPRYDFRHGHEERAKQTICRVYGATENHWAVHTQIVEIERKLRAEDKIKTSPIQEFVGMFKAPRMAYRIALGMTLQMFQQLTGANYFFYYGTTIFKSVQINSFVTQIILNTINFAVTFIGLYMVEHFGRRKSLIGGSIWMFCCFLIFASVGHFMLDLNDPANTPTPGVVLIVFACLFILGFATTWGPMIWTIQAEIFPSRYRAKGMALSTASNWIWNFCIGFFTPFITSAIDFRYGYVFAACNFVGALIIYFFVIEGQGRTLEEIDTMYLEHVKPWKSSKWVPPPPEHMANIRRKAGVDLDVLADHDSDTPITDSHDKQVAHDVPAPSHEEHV

Compound | Km [µM]
OC[C@H]1OC(O)[C@H](O)[C@@H](O)[C@@H]1O (stereo partly drawn) [D-glucose] | 57.9 ± 17.7
OC[C@H]1OC(O)[C@@H](O)[C@@H](O)[C@@H]1O (stereo partly drawn) [D-mannose] | 186 ± 18.9
OC[C@H]1OC(O)[C@H](O)[C@@H](O)[C@H]1O (stereo partly drawn) [D-galactose] | 1110 ± 490
